Like-named read-outs stand apart in the source and are kept apart here.
Experiments:
[1] = pKa (physicochemical properties)
[2] = Solubility (physicochemical properties)
[3] = test system: collagen synthesis in liver, hepatic fibrosis model; assay: Liver protective effect in DMN-induced hepatic fibrosis animal model (collagen type I/III immunohistological staining); assay type: in vivo, Sprague Dawley rat; settings: 10 mg/kg/day oral for 2 weeks; for collagen synthesis in hepatic portal veins and around the portal veins (immunohistology): DMN 10 mg/kg i.p. three times per week for 2 weeks, versus solvent control
Description: The following experiments were performed to investigate the in vivo collagen synthesis inhibitory effect of pyrazolopyrimidinone derivative of the present invention. Sprague Dawley white female rats (having approximately 300 g in weight) were divided into 4 groups (5 rats per group), and hepatic fibrosis was induced in experimental groups except the wild type control group (Toxicology, 2001). DMN (dimethylnitrosamine) was injected into the abdominal cavity in a dose of 10 mg/kg serially for 2 weeks with a dose frequency of three times per week. […] Only triazole buffer was administered to the solvent control group. Two weeks later, the liver was extracted, fixed in 10% neutral formalin, embedded in paraffin and sliced by […]. Each section was treated with xylene to eliminate paraffin, followed by treatment with alcohol and 0.1% hydrogen peroxide (H2O2). After treatment with PBS, the sections were treated with polyclonal antiserum (Chemicon) against collagen type I diluted by 1:500 and polyclonal antiserum (BioGenesis) against collagen type III diluted by 1:100, at 37° C. for one hour. After washing, samples were treated with 1:200 diluted biotin-conjugated goat anti-rabbit IgG. Immunohistological staining was performed by reacting the samples with avidin-biotin complex (Vector Laboratories), then antigen-antibody complex was marked with 3-amino-9-ethylcarbazole (AEC), whose image was taken by optical microscope now shown in FIG. 1-4. The control group was treated with non-immunized horse serum instead of primary antibody.

[4] = test system: portal hypertension model; assay: Portal hypertension animal model (bile duct ligation): portal blood pressure, portal vein diameter, blood flow; assay type: in vivo, beagle dog; settings: 10 mg/kg/day oral for two weeks; for Portal vein diameter / Blood flow rate (portal vein) / Portal blood pressure: bile duct ligated beagle dogs, mean ± standard deviation; for Portal vein diameter: Doppler ultrasonography
Description: The following experiments were performed to investigate the effect of pyrazolopyrimidinone derivative on portal hypertension. 12 beagle dogs weighing about 10 kg were divided into four groups (3 dogs were chosen per group randomly), and bile duct ligation was performed on them. […] The animals were fasted for 4 hours, then pentobarbital was intravenously injected to anesthetize them. A tube was inserted through the mesenteric vein to the portal vein to measure portal blood pressure. Doppler ultrasonography was also performed to measure the diameter of portal vein. Blood flow through the portal vein was measured by using the following mathematical chemistry FIG. 1, and the result is shown in Table 2. [formula]

[5] = test system: collagen synthesis in hepatic stellate cells; assay: Inhibitory effect on collagen synthesis using hepatic stellate cells (RT-PCR for collagen); assay type: cell-based, Sprague Dawley rat; settings: for IC50: Rattus norvegicus, hepatic stellate cells pre-treated with 25 ng/mL PDGF for 24 hours, collagen RT-PCR relative to beta-actin, mean ± standard deviation
Description: The following experiments were performed to investigate the inhibition effect of pyrazolopyrimidinone derivative of the present invention on collagen synthesis. Hepatic stellate cells were isolated from Sprague Dawley white male rats (about 300 g in weight, n=10). First, ketamin was injected into the abdominal cavity to anesthetize the rats. The abdomen was opened and heparin was injected into the portal vein. Then, Hank's buffer solution containing 0.02% pronase and 0.015% collagenase was perfused through the liver for a required time to prepare liver in sections. The extracted liver was crushed on a sterilized petri-dish, then put in a buffer solution containing pronase and DNase, and the crushed liver was then homogenized on a sterilized petri-dish. The prepared sample was filtered with 100 μm nylon mesh in a 50 mL tube. Centrifugation was performed with 50 g for 2 minutes to separate nonparenchymal cells in supernatant. Centrifugation was performed again with 450 g at 4° C. for 10 minutes. The precipitate was floated in a buffer solution containing 25 μg/mL of DNase, followed by centrifugation with 450 g at 4° C. for 10 minutes, which was repeated twice. The final precipitate was floated in 21 mL of buffer solution, which was then mixed with 17 mL of 25% OptiPrep to prepare the final solution of 11.2% OptiPrep (1.058 cm^3). Cell suspension solution mixed with OptiPrep was carefully distributed into four 15 mL tubes containing 3 mL of 17% OptiPrep, to which 1 mL of buffer solution was added. Centrifugation was performed with 1400 g at 4° C. for 17 minutes, and as a result, pure hepatic stellate cells were obtained from the opaque layer between the buffer solution and […]. The separated hepatic stellate cells were suspended in DMEM (Dulbecco's Modified Eagle' Media), followed by washing. The cells were suspended again in DMEM supplemented with 10% FBS (Fetal Bovine Serum) and antibiotics, then inoculated into a culture vessel, which was cultured in a 37° C. 5% CO2 incubator. The culture medium was first replaced 24 hours later, and then replaced every 48 hours for sub-culture. Hepatic stellate cells sub-cultured 8 times were grouped by 2×10^5, which were pre-treated with 25 ng/mL of PDGF (Platelet Derived Growth Factor) for 24 hours. […] The total RNA was extracted and RT-PCR (Reverse Transcriptase Polymerase Chain Reaction) for collagen was performed. Based on the relative concentration to beta-actin, a target material was compared with other test samples. In order to determine the inhibitory effect of a target sample on collagen synthesis, inhibitory concentration 50% (IC50) was investigated, and the result is shown in Table 1.

[6] = In vivo pharmacokinetics in portal hypertension patients (plasma HPLC); settings: human
Description: Nine volunteers among portal hypertension patients who were in the criterion of age from 19-45 and weight over 45 kg (within 15% deviation of ideal body weight) participated in experiments. They were all volunteers who agreed in writing to join the experiments and were trustworthy, cooperative and willing to follow the rules.
A double blind method was used for the experiments. At 8-9 am on the test day, test medicines were given with 240 mL of water to volunteers. For 4 hours from the administration, they were fasted, and lunch was provided 4 hours later and dinner was provided 9 hours later. Blood samples were taken before the administration on the test day and at the 0.5th, 1st, 1.5th, 2nd, 2.5th, 3rd, 4th, 5th, 6th, 8th, 12th, 24th and 32nd hour after the administration. Blood plasma was isolated, followed by HPLC. 100 μL of 0.1 M sodium carbonate and 1.0 mL of ethyl ether were added to 0.5 mL of blood plasma, then mixed well for 1 minute, followed by centrifugation at 12,000 rpm for 3 minutes. Supernatant was obtained and organic solvent was volatilized using speed vac. Then, 100 μL of moving phase was added, followed by stirring.

[7] = test system: experimental cirrhosis models; settings: dose-dependently; cited from earlier work

| Structure (SMILES) | collagen synthesis in hepatic portal veins and around the portal veins (immunohistology) [3] | blood flow rate through portal vein increase compared with solvent treated group [4] | portal blood pressure decrease compared with solvent treated control group [4] | Portal vein diameter [4] | Blood flow rate (portal vein) [4] | Portal blood pressure [4] | IC50 [5] | other results |
| --- | --- | --- | --- | --- | --- | --- | --- | --- |
| CCCOc1ccc(S(=O)(=O)NCCC2CCCN2C)cc1-c1nc2c(CCC)nn(C)c2c(=O)[nH]1 (stereo not shown) [Pyrazolopyrimidinone derivative, 5-[2-propyloxy-5-(1-methyl-2-pyrrolidinylethyl amidosulfonyl)phenyl]-1-methyl-3-propyl-1,6-dihydro-7H-pyrazolo(4,3-d)pyrimidin-7-one] | remarkably inhibited | 59.9% | 21% | 7.70 ± 0.26 mm | 932.31 ± 89.83 mL/min | 2.50 ± 0.20 kPa | 0.8 ± 0.2 nM | pKa1 [1]: 6.5; pKa2 [1]: 12.5; solubility in acetic acid, methanol and chloroform ([2]; acetic acid, methanol and chloroform): soluble; solubility in water ([2]; water): insoluble; inhibition of collagen synthesis compared with the sildenafil treated group ([3]; DMN rats): greater than that in the sildenafil treated group; collagen synthesis inhibitory effect, times higher than sildenafil ([5]; ratio of IC50 versus sildenafil): 16 times; collagen synthesis inhibitory effect, times higher than vardenafil ([5]; ratio of IC50 versus vardenafil): 10 times; collagen synthesis inhibitory effect, times as excellent as other conventional PDE 5 inhibitors ([5]; versus other conventional PDE 5 inhibitors (Table 1)): 10-16 times; half-life, fold longer than vardenafil ([6]; in vivo): two fold; half-life ([6]; in vivo, po, 100 mg): 15.1 ± 3.5 h |
| CCCc1nc(C)c2c(=O)[nH]c(-c3cc(S(=O)(=O)N4CCN(CC)CC4)ccc3OCC)nn12 [Vardenafil, vardenafil] |  | 24.8% | 9% | 7.43 ± 0.21 mm | 729.29 ± 83.23 mL/min | 2.87 ± 0.25 kPa | 7.8 ± 1.7 nM | half-life ([6]; plasma, patients with portal hypertension, 10 mg oral, mean ± standard deviation, read-out: Half-life (converted)): 6.3 ± 2.1 h |
| CCCc1nn(C)c2c(=O)[nH]c(-c3cc(S(=O)(=O)N4CCN(C)CC4)ccc3OCC)nc12 [Sildenafil, sildenafil] | remarkably inhibited | 29.1% | 7% | 7.47 ± 0.21 mm | 754.47 ± 80.24 mL/min | 2.93 ± 0.25 kPa | 13.1 ± 2.3 nM | Portal blood pressure [7]: increases; blood flow through mesenteria [7]: increases; half-life ([6]; plasma, patients with portal hypertension, 50 mg oral, mean ± standard deviation, read-out: Half-life (converted)): 4.5 ± 1.2 h |

Source: patent US8796286B2, “Agent for treatment of liver diseases containing pyrazolopyrimidinone derivative” (Mezzion Pharma Co., Ltd., priority 2005, dated 2014)
